Laboratory results as given in patent US12655116B2, “Substituted isophthalic acid diamides” (Bayer Aktiengesellschaft, priority 2020, dated 2026).

Tests used:
[1] = test system: SETVI; assay: Post-emergence herbicidal action against SETVI; format: in vivo, Setaria viridis; details: for pest or weed control at 5 g/ha / pest or weed control at 20 g/ha: Setaria viridis, 504 h
Procedure, shortened: (§1)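 Greenhouse pot plants in sandy loam were sprayed at the one-leaf stage, 2 to 3 weeks after sowing, with WP or EC formulations as aqueous suspension or emulsion (600 to 800 l/ha water, 0.2% wetting agent). About 3 weeks later, damage was scored visually against untreated controls as % action (100% = dead, 0% = like control).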

[2] = test system: ABUTH; assay: Post-emergence herbicidal action against ABUTH; format: in vivo, Abutilon theophrasti; details: visual assessment about 3 weeks after treatment vs untreated controls
Procedure, shortened: as §1

[3] = test system: VERPE; assay: Pre-emergence herbicidal action against VERPE; format: in vivo, Veronica persica
Procedure, shortened: (§2)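 Visual rating at 3 weeks vs untreated pots; 0–100% scale, 100% = plants died. Treatment: aqueous WP/EC spray onto covering soil, 600–800 l/ha, 0.2% wetter, seeds in sandy loam.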

[4] = test system: ALOMY; assay: Pre-emergence herbicidal action against ALOMY; format: in vivo, Alopecurus myosuroides; details: pre-emergence; for Pre-emergence action against ALOMY (herbicidal activity) / pest or weed control at 80 g/ha: 80 g/ha, scored visually after 3 weeks vs untreated controls (100% = plants have died, 0% = like control plants); for pest or weed control at 80 g/ha / pest or weed control at 20 g/ha: Alopecurus myosuroides, 504 h; for pest or weed control at 20 g/ha: scored visually after 3 weeks, 100% = plants have died, 0% = like control plants
Procedure, shortened: as §2

[5] = test system: VIOTR; assay: Post-emergence herbicidal action against VIOTR; format: in vivo, Viola tricolor; details: for pest or weed control at 20 g/ha: Viola tricolor, 504 h
Procedure, shortened: as §1

[6] = test system: ECHCG; assay: Post-emergence herbicidal action against ECHCG; format: in vivo, Echinochloa crus-galli; details: dosage 20 g/ha
Procedure, shortened: as §1

[7] = test system: MATIN; assay: Pre-emergence herbicidal action against MATIN; format: in vivo, Matricaria inodora; details: for pest or weed control at 20 g/ha / pest or weed control at 80 g/ha: Tripleurospermum inodorum, 504 h
Procedure, shortened: as §2

[8] = test system: VERPE; assay: Post-emergence herbicidal action against VERPE; format: in vivo, Veronica persica; details: 20 g/ha; for pest or weed control at 20 g/ha: Veronica persica, 504 h
Procedure: (§3) Seeds of monocotyledonous and dicotyledonous weed and crop plants are laid out in sandy loam soil in wood-fiber pots, covered with soil and cultivated in a greenhouse under good growth conditions. 2 to 3 weeks after sowing, the test plants are treated at the one-leaf stage. The compounds of the invention, formulated in the form of wettable powders (WP) or as emulsion concentrates (EC), are then sprayed onto the green parts of the plants in the form of an aqueous suspension or emulsion at a water application rate equivalent to 600 to 800 l/ha, with addition of 0.2% wetting agent. After the test plants have been left to stand in the greenhouse under optimal growth conditions for about 3 weeks, the action of the preparations is assessed visually in comparison to untreated controls (herbicidal action in percent (%): 100% activity=the plants have died, 0% activity=like control plants). […] The tables below illustrate, in an illustrative manner, the post-emergence herbicidal action of the compounds of the invention, the herbicidal activity being stated in percent.

[9] = test system: MATIN; assay: Post-emergence herbicidal action against MATIN; format: in vivo, Matricaria inodora; details: dosage 20 g/ha
Procedure: as §3

[10] = test system: AMARE; assay: Post-emergence herbicidal action against AMARE; format: in vivo, Amaranthus retroflexus; details: 20 g/ha, visual assessment about 3 weeks after treatment, 100% = plants have died, 0% = like control plants; for pest or weed control at 20 g/ha: Amaranthus retroflexus, 504 h
Procedure, shortened: as §1

[11] = test system: VIOTR; assay: Pre-emergence herbicidal action against VIOTR; format: in vivo, Viola tricolor
Procedure, shortened: as §2

[12] = test system: PHBPU; assay: Post-emergence herbicidal action against PHBPU; format: in vivo, Pharbitis purpurea
Procedure, shortened: as §1

[13] = test system: AMARE; assay: Pre-emergence herbicidal action against AMARE; format: in vivo, Amaranthus retroflexus; details: for pest or weed control at 20 g/ha / pest or weed control at 80 g/ha: Amaranthus retroflexus, 504 h
Procedure, shortened: as §2

[14] = test system: ALOMY; assay: Post-emergence herbicidal action against ALOMY; format: in vivo, Alopecurus myosuroides; details: visual assessment about 3 weeks after treatment vs untreated controls
Procedure: as §3

[15] = test system: SETVI; assay: Pre-emergence herbicidal action against SETVI; format: in vivo, Setaria viridis; details: dosage 80 g/ha
Procedure, shortened: as §2

[16] = test system: ABUTH; assay: Pre-emergence herbicidal action against ABUTH; format: in vivo, Abutilon theophrasti; details: for Pre-emergence action against ABUTH (herbicidal activity) / pest or weed control at 80 g/ha: 80 g/ha, scored visually after 3 weeks vs untreated controls (100% = plants have died, 0% = like control plants); for pest or weed control at 80 g/ha: Abutilon theophrasti, 504 h
Procedure, shortened: as §2

[17] = test system: ECHCG; assay: Pre-emergence herbicidal action against ECHCG; format: in vivo, Echinochloa crus-galli; details: 80 g/ha; for pest or weed control at 80 g/ha: Echinochloa crus-galli, 504 h
Procedure, shortened: as §2

[18] = test system: DIGSA; assay: Post-emergence herbicidal action against DIGSA; format: in vivo, Digitaria sanguinalis; details: Digitaria sanguinalis, 504 h
Procedure, shortened: as §1

[19] = test system: DIGSA; assay: Pre-emergence herbicidal action against DIGSA; format: in vivo, Digitaria sanguinalis; details: Digitaria sanguinalis, 504 h
Procedure, shortened: as §2

[20] = test system: AVEFA; assay: Pre-emergence herbicidal action against AVEFA; format: in vivo, Avena fatua; details: 80 g/ha, pre-emergence; for pest or weed control at 80 g/ha: Avena fatua, 504 h
Procedure, shortened: as §2

[21] = 20 g/ha, scored visually after 3 weeks vs untreated controls, 100% = plants have died, 0% = like control plants
[22] = 80 g/ha, scored visually after 3 weeks vs untreated controls (100% = plants have died, 0% = like control plants)
[23] = Viola tricolor, 504 h, dosage 80 g/ha
[24] = Ipomoea purpurea, 504 h, dosage 20 g/ha
[25] = 80 g/ha, scored visually after 3 weeks vs untreated controls, 100% = plants have died, 0% = like control plants
[26] = Alopecurus myosuroides, 504 h, dosage 20 g/ha
[27] = Abutilon theophrasti, 504 h, dosage 20 g/ha

| SMILES | Post-emergence action against ABUTH in % ([2]; dosage 20 g/ha) | Pre-emergence action against ALOMY (herbicidal activity) [4] | Post-emergence action against VIOTR in % ([5]; 20 g/ha) | Post-emergence action against ECHCG in % [6] | Pre-emergence action against MATIN in % ([7]; dosage 80 g/ha) | Post-emergence action against VERPE in % [8] | Post-emergence action at 20 g/ha against AMARE in % [10] | Pre-emergence action against VIOTR in % ([11]; dosage 80 g/ha) | Post-emergence action against PHBPU in % ([12]; dosage 20 g/ha) | Pre-emergence action against AMARE in % [13, 22] | Post-emergence action against ALOMY in % ([14]; dosage 20 g/ha) | Pre-emergence action against ABUTH (herbicidal activity) [16] | pest or weed control at 80 g/ha [4] | pest or weed control at 20 g/ha ([5]; 20 g/ha) | pest or weed control at 80 g/ha ([7]; dosage 80 g/ha) | pest or weed control at 20 g/ha [8] | pest or weed control at 20 g/ha [10] | pest or weed control at 20 g/ha [12, 24] | pest or weed control at 20 g/ha [13, 21] | pest or weed control at 80 g/ha [13, 25] | other results |
| --- | --- | --- | --- | --- | --- | --- | --- | --- | --- | --- | --- | --- | --- | --- | --- | --- | --- | --- | --- | --- | --- |
| CSc1c(C(=O)Nc2nnnn2C)ccc(C(F)F)c1C(=O)NCC1CC1 [Example 1-90] | 90% | 80% | 100% | 100% | 100% | 90% | 100% | 100% | 90% | 100% | 80% | 100% | – | – | – | – | – | – | – | – | Post-emergence action against SETVI in % ([1]; dosage 20 g/ha): 90%; Post-emergence action against ABUTH in % ([2]; dosage 5 g/ha): 80%; Pre-emergence action against VERPE in % ([3]; dosage 80 g/ha): 90%; Post-emergence action against VIOTR in % ([5]; 5 g/ha): 80%; Pre-emergence action against MATIN in % ([7]; dosage 20 g/ha): 100%; Post-emergence action against MATIN in % [9]: 80%; Pre-emergence action against VIOTR in % ([11]; dosage 20 g/ha): 90%; Pre-emergence action against AMARE in % [13, 21]: 100%; Pre-emergence action against SETVI in % [15]: 100%; Pre-emergence action against ABUTH (herbicidal activity in percent) ([16]; dosage 20 g/ha, scored visually after 3 weeks vs untreated controls, 100% = plants have died, 0% = like control plants): 100%; Pre-emergence action against ECHCG in % [17]: 100% |
| Cn1nnnc1NC(=O)c1ccc(C(F)(F)F)c(C(=O)NCC(F)(F)F)c1Cl [Example 1-133] | – | – | – | – | – | – | – | – | – | – | – | – | 90% | 80% | 100% | 90% | 100% | 80% | 90% | 100% | pest or weed control at 5 g/ha ([1]; dosage 5 g/ha): 90%; pest or weed control at 20 g/ha ([1]; dosage 20 g/ha): 100%; pest or weed control at 20 g/ha [4]: 90%; pest or weed control at 5 g/ha ([18]; 5 g/ha): 90%; pest or weed control at 20 g/ha ([18]; 20 g/ha): 90%; pest or weed control at 20 g/ha ([19]; dosage 20 g/ha): 90%; pest or weed control at 80 g/ha ([19]; dosage 80 g/ha): 100%; pest or weed control at 20 g/ha ([7]; dosage 20 g/ha): 90%; pest or weed control at 20 g/ha ([11]; Viola tricolor, 504 h, dosage 20 g/ha): 100%; pest or weed control at 80 g/ha [11, 23]: 100%; pest or weed control at 20 g/ha [14, 26]: 90%; pest or weed control at 80 g/ha [20]: 100%; pest or weed control at 80 g/ha ([15]; Setaria viridis, 504 h): 100%; pest or weed control at 80 g/ha [16]: 100%; pest or weed control at 80 g/ha [17]: 100% |
| CNC(=O)c1c(Br)ccc(C(=O)Nc2nnnn2C)c1Br [Example 1-342] | – | – | – | – | – | – | – | – | – | – | – | – | 100% | 80% | 100% | 80% | 100% | 90% | 100% | 100% | pest or weed control at 5 g/ha ([1]; dosage 5 g/ha): 90%; pest or weed control at 20 g/ha ([1]; dosage 20 g/ha): 90%; pest or weed control at 5 g/ha ([2]; Abutilon theophrasti, 504 h, dosage 5 g/ha): 90%; pest or weed control at 20 g/ha [2, 27]: 90%; pest or weed control at 20 g/ha [4]: 90%; pest or weed control at 20 g/ha ([6]; Echinochloa crus-galli, 504 h): 80%; pest or weed control at 20 g/ha ([7]; dosage 20 g/ha): 80%; pest or weed control at 5 g/ha ([12]; Ipomoea purpurea, 504 h, dosage 5 g/ha): 80%; pest or weed control at 5 g/ha ([14]; Alopecurus myosuroides, 504 h, dosage 5 g/ha): 90%; pest or weed control at 20 g/ha [14, 26]: 100%; pest or weed control at 80 g/ha [20]: 100%; pest or weed control at 80 g/ha [17]: 100% |
| COCCNC(=O)c1c(C(F)F)ccc(C(=O)Nc2nnnn2C)c1C [Example 1-347] | 90% | 80% | 100% | 90% | 90% | 90% | 100% | 80% | 90% | 100% | 80% | 100% | – | – | – | – | – | – | – | – | Post-emergence action against ABUTH in % ([2]; dosage 5 g/ha): 80%; Post-emergence action against VIOTR in % ([5]; 5 g/ha): 80%; Post-emergence action against PHBPU in % ([12]; dosage 5 g/ha): 90% |
| COc1ccc(C(=O)Nc2nnnn2C)c(Cl)c1C(=O)NC1CC1 [Example 1-356] | – | – | – | – | – | – | – | – | – | – | – | – | 100% | 90% | 100% | 90% | 100% | 80% | 100% | 100% | pest or weed control at 20 g/ha [2, 27]: 100%; pest or weed control at 20 g/ha ([3]; Veronica persica, 504 h, dosage 20 g/ha): 100%; pest or weed control at 80 g/ha ([3]; Veronica persica, 504 h, dosage 80 g/ha): 100%; pest or weed control at 80 g/ha [11, 23]: 100%; pest or weed control at 20 g/ha [14, 26]: 80%; pest or weed control at 80 g/ha [16]: 100% |
| CCn1nnnc1NC(=O)c1ccc(OC)c(C(=O)NC)c1Cl [Example 2-352] | 80% | 90% | 90% | 90% | 90% | 90% | 100% | 80% | 80% | 100% | 90% | 100% | – | – | – | – | – | – | – | – | Post-emergence action against SETVI in % ([1]; dosage 5 g/ha): 80%; Post-emergence action against SETVI in % ([1]; dosage 20 g/ha): 80%; Pre-emergence action against MATIN in % ([7]; dosage 20 g/ha): 90%; Post-emergence action against MATIN in % [9]: 80%; Pre-emergence action against VIOTR in % ([11]; dosage 20 g/ha): 80%; Pre-emergence action against AMARE in % [13, 21]: 100%; Post-emergence action against ALOMY in % ([14]; dosage 5 g/ha): 80%; Pre-emergence action against AVEFA in % [20]: 80%; Pre-emergence action against SETVI in % [15]: 100%; Pre-emergence action against ECHCG in % [17]: 80% |
